From US20230117470A1, “SUBSTITUTED PYRAZOLE COMPOUNDS AS TOLL RECEPTOR INHIBITORS” (BRISTOL-MYERS SQUIBB COMPANY, priority 2019, published 2023)

How the values were obtained:
Type in all cases: cell-based
[1] = target: T1, human TLR7 (Homo sapiens, UniProt Q9NYK1); assay: TLR7 inhibition reporter assay (HEK-Blue cells, SEAP reporter, gardiquimod stimulation); conditions: HEK-Blue cells overexpressing human TLR7, SEAP reporter, gardiquimod 7.5 μM
T1 construct: host or cells: HEK-Blue cells
T1 sequence (Q9NYK1 27-1049): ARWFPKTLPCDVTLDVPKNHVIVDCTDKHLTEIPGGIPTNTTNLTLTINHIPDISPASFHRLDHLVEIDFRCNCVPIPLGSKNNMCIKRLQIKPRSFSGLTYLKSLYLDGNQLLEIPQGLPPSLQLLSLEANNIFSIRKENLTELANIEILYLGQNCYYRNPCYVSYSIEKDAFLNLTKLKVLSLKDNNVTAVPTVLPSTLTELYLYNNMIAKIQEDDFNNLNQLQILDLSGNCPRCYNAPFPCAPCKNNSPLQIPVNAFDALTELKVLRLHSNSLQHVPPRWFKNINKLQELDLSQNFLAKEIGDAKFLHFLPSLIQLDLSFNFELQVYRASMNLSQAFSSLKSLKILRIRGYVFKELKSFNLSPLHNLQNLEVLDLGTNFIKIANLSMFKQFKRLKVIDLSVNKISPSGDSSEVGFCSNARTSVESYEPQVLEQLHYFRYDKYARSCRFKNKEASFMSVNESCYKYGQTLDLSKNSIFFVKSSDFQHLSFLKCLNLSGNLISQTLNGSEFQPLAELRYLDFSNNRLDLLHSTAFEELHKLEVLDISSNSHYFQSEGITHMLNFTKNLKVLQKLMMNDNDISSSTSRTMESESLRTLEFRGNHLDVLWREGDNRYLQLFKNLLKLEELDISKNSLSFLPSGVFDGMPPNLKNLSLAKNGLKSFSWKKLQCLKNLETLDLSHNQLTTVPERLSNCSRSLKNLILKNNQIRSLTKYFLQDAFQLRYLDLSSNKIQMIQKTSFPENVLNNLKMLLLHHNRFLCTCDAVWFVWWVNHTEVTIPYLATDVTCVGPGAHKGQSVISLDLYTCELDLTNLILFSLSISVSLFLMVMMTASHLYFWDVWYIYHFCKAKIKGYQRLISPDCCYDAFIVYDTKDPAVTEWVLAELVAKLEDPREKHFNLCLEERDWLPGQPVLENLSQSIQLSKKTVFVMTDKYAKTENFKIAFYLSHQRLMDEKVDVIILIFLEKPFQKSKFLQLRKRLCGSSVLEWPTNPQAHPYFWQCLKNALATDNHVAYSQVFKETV
How it was run: (§1)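 Ligand levels differed by receptor: TLR7 got gardiquimod at 7.5 μM, TLR8 got R848 at 15.9 μM, and TLR9 got ODN2006 at 5 nM, each added after a 30-min room-temperature compound exposure. Incubation lasted 22 h at 37° C before colorimetric SEAP detection.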

[2] = target: T2, human TLR8 (Homo sapiens, UniProt Q9NR97); assay: TLR8 inhibition reporter assay (HEK-Blue cells, SEAP reporter, R848 stimulation); conditions: HEK-Blue cells overexpressing human TLR8, SEAP reporter, R848 15.9 μM
T2 construct: host or cells: HEK-Blue cells
T2 sequence (Q9NR97 27-1041): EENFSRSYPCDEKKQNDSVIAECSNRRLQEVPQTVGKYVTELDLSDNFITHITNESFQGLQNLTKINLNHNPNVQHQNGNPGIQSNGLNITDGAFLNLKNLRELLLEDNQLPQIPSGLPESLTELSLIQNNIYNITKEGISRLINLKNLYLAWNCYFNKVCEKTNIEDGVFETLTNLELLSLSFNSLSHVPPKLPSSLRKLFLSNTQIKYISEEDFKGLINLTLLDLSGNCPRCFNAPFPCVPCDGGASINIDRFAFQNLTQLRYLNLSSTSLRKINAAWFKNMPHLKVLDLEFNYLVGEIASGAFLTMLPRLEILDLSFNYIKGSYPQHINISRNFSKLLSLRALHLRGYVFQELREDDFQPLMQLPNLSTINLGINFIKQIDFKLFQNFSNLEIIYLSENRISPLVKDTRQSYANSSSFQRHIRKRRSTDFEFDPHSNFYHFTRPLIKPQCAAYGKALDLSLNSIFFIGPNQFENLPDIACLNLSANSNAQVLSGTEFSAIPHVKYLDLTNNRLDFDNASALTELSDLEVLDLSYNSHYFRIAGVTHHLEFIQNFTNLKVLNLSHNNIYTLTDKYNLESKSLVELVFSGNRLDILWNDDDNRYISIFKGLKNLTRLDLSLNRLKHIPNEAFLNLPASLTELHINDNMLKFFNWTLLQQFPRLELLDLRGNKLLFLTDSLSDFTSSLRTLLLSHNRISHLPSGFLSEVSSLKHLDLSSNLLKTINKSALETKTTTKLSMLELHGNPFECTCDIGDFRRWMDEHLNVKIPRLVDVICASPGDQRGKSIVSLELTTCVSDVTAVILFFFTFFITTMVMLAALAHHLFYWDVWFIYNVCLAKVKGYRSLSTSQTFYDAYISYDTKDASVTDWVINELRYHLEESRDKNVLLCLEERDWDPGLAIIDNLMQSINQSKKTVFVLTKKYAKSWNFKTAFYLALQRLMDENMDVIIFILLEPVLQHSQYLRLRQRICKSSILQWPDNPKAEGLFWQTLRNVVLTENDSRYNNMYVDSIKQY
How it was run: as §1

[3] = target: T3, human TLR9 (Homo sapiens, UniProt Q9NR96); assay: TLR9 inhibition reporter assay (HEK-Blue cells, SEAP reporter, ODN2006 stimulation); conditions: HEK-Blue cells overexpressing human TLR9, SEAP reporter, ODN2006 5 nM
T3 construct: host or cells: HEK-Blue cells
T3 sequence (Q9NR96 26-1032): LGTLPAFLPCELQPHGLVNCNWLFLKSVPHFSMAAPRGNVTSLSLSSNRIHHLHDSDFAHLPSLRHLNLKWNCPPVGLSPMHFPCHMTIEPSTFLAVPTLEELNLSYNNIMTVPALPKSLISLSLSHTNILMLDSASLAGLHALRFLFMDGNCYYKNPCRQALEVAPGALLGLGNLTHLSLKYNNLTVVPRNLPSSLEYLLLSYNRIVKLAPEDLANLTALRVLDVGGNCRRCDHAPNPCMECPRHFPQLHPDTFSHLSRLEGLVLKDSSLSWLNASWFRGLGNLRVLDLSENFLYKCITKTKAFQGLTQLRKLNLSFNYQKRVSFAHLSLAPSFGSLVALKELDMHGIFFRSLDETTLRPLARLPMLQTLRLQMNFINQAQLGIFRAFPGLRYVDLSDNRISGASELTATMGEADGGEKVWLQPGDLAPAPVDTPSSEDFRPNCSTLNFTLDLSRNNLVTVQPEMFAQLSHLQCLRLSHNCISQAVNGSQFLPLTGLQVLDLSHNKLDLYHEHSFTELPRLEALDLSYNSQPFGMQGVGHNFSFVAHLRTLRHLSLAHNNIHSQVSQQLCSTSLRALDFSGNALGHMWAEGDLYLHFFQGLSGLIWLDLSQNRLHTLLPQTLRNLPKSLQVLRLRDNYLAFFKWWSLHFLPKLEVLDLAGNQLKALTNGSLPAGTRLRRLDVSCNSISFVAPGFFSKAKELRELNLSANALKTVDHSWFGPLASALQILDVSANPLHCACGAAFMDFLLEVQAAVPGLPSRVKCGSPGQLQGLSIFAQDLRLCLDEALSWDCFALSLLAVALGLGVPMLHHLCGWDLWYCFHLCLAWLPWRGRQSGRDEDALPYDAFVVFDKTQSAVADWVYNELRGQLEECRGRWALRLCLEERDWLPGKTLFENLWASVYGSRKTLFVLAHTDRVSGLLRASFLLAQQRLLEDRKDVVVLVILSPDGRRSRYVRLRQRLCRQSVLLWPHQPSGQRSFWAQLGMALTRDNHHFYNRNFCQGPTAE
How it was run: as §1

| SMILES | IC50 [1] [nM] | IC50 [2] [nM] | IC50 [3] [nM] |
| --- | --- | --- | --- |
| Cc1cc(-c2[nH]nc(C(=O)NC3CCN(C(C)C)CC3)c2C(C)C)cn(C)c1=O [Example 39] | 8.31 | 25.5 | 3560 |
| CC(=O)N1CCc2nc(-c3n[nH]c(-c4cc(C)c5ncnn5c4)c3C(C)C)sc2C1 [Example 276] | 975 | > 3130 | > 50000 |
| Cc1cc(-c2[nH]nc(CNC3CCNCC3)c2C(C)C)cn2ncnc12 [Example 187] | 10.4 | 4.25 | 8720 |
| Cc1cc(-c2[nH]nc(C(=O)N[C@H]3CC[C@H](NC(C)C(C)(C)C)CC3)c2C(C)C)cn2ncnc12 (stereo partly drawn) [Example 148] | 11.8 | 9.93 | > 50000 |
| CCN1CCC(c2ccc(-c3n[nH]c(-c4cc(OC)c5ncnn5c4)c3C(C)C)cc2)CC1 [Example 315] | 5.22 | 20.2 | > 50000 |
| CCN1CCC(c2cnc(-c3n[nH]c(-c4cc(C)c5ncnn5c4)c3C(C)C)nc2)CC1 [Example 369] | 18 | 33 | 46900 |
| CCCN1CC(c2ccc(-c3n[nH]c(-c4cc(C)c5ncnn5c4)c3C(C)C)cc2)C1 [Example 326] | 5.42 | 7.97 | 17600 |
| CCN1CCc2nc(-c3n[nH]c(-c4cc(OC)c5ncnn5c4)c3C(C)C)sc2C1 [Example 261] | 8.43 | 2.26 | 17100 |
| Cc1cc(-c2[nH]nc(-c3nc4c(s3)CN(CC(C)(C)O)CC4)c2C(C)C)cn2ncnc12 [Example 265] | 14 | 3.29 | 47700 |
| Cc1cc(-c2[nH]nc(-c3ccc(C4CCN(CC(C)(C)C)CC4)cc3)c2C(C)C)cn2ncnc12 [Example 317] | 9.47 | 4.22 | 44400 |
| Cc1cc(-c2[nH]nc(C(=O)N[C@H]3CC[C@H](NCc4cccnc4)CC3)c2C(C)C)cn2ncnc12 [Example 112] | 11.4 | 28.3 | > 50000 |
| COCCNc1ccc2nc(-c3n[nH]c(-c4cc(C)c5ncnn5c4)c3C(C)C)sc2c1 [Example 267] | 24.3 | 7.16 | > 50000 |

The next compounds have a lower IC50 [1] than those just listed; values first:

| IC50 [1] [nM] | IC50 [2] [nM] | IC50 [3] [nM] | SMILES |
| --- | --- | --- | --- |
| 3.68 | 23 | 4790 | CCC(CC)CN[C@H]1CC[C@@H](NC(=O)c2n[nH]c(-c3cc(C)c4ncnn4c3)c2C(C)C)CC1 [Example 101] |
| 3.11 | 1.91 | 3880 | Cc1cc(-c2[nH]nc(C(=O)N[C@H]3CC[C@H](NC4CCOCC4)CC3)c2C(C)C)cn2ncnc12 [Example 116] |
| 2.32 | 2.33 | 9860 | CCN1CCC(c2cnc(-c3n[nH]c(-c4cc(OC)c5ncnn5c4)c3C(C)C)cn2)CC1 [Example 382] |
| 2.01 | 8.14 | 760 | Cc1cc(-c2[nH]nc(C(=O)NC3CCN(C(=O)OC(C)(C)C)CC3)c2C(C)C)cn2ncnc12 [Example 1, tert-butyl 4-(4-isopropyl-5-(8-methyl-[1,2,4]triazolo[1,5-a]pyridin-6-yl)-1H-pyrazole-3-carboxamido)piperidine-1-carboxylate] |
| 1.69 | 4.36 | 42800 | Cc1cc(-c2[nH]nc(C(=O)NCC3CN(C4COC4)CCO3)c2C(C)C)cn2ncnc12 (stereo not drawn) [Example 136] |
| 1.59 | 1.03 | 8800 | Cc1cc(-c2[nH]nc(C(=O)NC[C@@H]3CCCN3)c2C(C)C)cn2ncnc12 [Example 51] |
| 1.53 | 0.98 | 7770 | COc1ncc(CN[C@H]2CC[C@@H](NC(=O)c3n[nH]c(-c4cc(C)c5ncnn5c4)c3C(C)C)CC2)cn1 [Example 96] |
| 1.42 | 0.72 | 12700 | Cc1cc(-c2[nH]nc(C3CCC(N(C)CC(=O)N(C)C)CC3)c2C(C)C)cn2ncnc12 (single isomer, unassigned) [compound 299] |
| 1.37 | 1.9 | 1330 | COc1cc(-c2[nH]nc(C(=O)N3CCCN(C)CC3)c2C(C)C)cn2ncnc12 [Example 10] |
| 1.01 | 0.84 | 11400 | Cc1cc(-c2[nH]nc(CN(C)C)c2C(C)C)cn2ncnc12 [Example 184, 1-(4-isopropyl-5-(8-methyl-[1,2,4]triazolo[1,5-a]pyridin-6-yl)-1H-pyrazol-3-yl)-N,N-dimethylmethanamine] |
| 0.98 | 6.83 | 13200 | Cc1cc(-c2[nH]nc(C(=O)NC3CCC(NCC(C)(C)C)CC3)c2C(C)C)cn2ncnc12 (stereo not drawn) [Example 126] |
| 0.89 | 7.55 | 3390 | Cc1cc(-c2[nH]nc(C(=O)NC3CCN(CCC(C)(C)C)CC3)c2C(C)C)cn2ncnc12 [Example 75] |
| 0.59 | 0.89 | 10400 | CCN1CCOC(CNC(=O)c2n[nH]c(-c3cc(C)c4ncnn4c3)c2C(C)C)C1 (stereo not drawn) [Example 140] |
